In patent publication US20170001988A1, “PIPERIDINE AND PIPERAZINE DERIVATIVES AND THEIR USE IN TREATING VIRAL INFECTIONS AND CANCER” (THE UNITED STATES OF AMERICA, AS REPRESENTED BY THE …, priority 2013, published 2017):

Experiments:
HCV replicon GT 2a = format: cell-based; conditions: for inhibitory effect in replicon GT 2a cell line: 10 μM, luciferase 48 h
[1] = tested on: HCVcc, genotype 2a, JFH-1 strain; assay: HCVcc assay, extracellular and intracellular viral RNA by quantitative real-time PCR; format: cell-based, HCV; conditions: for extracellular viral RNA level / intracellular viral RNA level: compound at 10 μM, Huh 7.5.1 cells, 48 h, vs DMSO
Procedure: Huh 7.5.1 cells were seeded in 12-well plates (10^5 cells/well) and cultured overnight. HCVcc was used to infect the cells with the treatment of compounds at 10 μM. Virus-containing medium was removed after 4 h incubation and compound treatment was added back followed by incubation for additional 48 h. Intracellular and extracellular viral RNA levels were evaluated by quantitative real-time PCR. The results are illustrated in FIG. 1 and are the means of three replicates ±SEM. […] Cyclosporin A at 10 μM was used as positive control.
Cell Culture-derived HCV (HCVcc, genotype 2a, JFH-1 strain) system provides direct evidence of anti-HCV activity of the compounds.
(§1) Cell Culture-derived HCV (HCVcc, genotype 2a, JFH-1 strain) system provides direct evidence of anti-HCV activity of the compounds. Determination of both extracellular and intracellular HCV levels can help evaluate whether the compounds interfere early-stage or late-stage infection. […] Cyclosporin A was tested in parallel to serve as control compound targeting early-stage HCV infection. […] At the highest concentration, cyclosporin A caused approximately 4-log fold reduction in intracellular RNA copies, while the extracellular level reduced less than […]. On the contrary, NCGC00345021 led to only about 1-log fold decrease in intracellular RNA copies when causing 3-log fold reduction in extracellular RNA level. Clearly, when the concentration increased, NCGC00345021 led to a more dramatic reduction in extracellular RNA copies.

HCVpp GT 1a = format: cell-based, HCV; conditions: for inhibitory activity in HCVpp GT 1a: 10 μM, Huh 7.5.1 cells
HCV replicon GT 1b = format: cell-based; conditions: 10 μM; luciferase 48 h
HCV-Luc = HCV-Luc infection assay; format: cell-based; conditions: Hepatitis C virus; for EC50: Table 3, read-out: EC50
[2] = ATPLite cytotoxicity assay; conditions: human, Huh7.5.1 cells
Text: (§2) EC50 was generated using the HCV-Luc infection assay and IC50 using the ATPLite assay.
(§3) EC50 was generated using the HCV-Luc infection assay and TC50 using the ATPLite assay.
(§4) The cytotoxicity of the compounds was further evaluated in HepG2 cells and primary human hepatocytes.

replicon GT 1a = assay: Transient replicon assay, GT 1a; format: cell-based, HCV; conditions: 10 μM; 48 h; Huh7.5.1 cells
HCVsc, genotype 2a = format: cell-based, HCV; conditions: for inhibitory activity in the HCVsc infection level: 10 μM, Huh 7.5.1 cells, luciferase 48 h
HCVpp GT 1b = format: cell-based, HCV; conditions: 10 μM; Huh 7.5.1 cells
Huh7.5.1 cells = assay: in vitro; conditions: human
Text: as §2, §3, §4

HCV genotype 1b = format: in vivo, mice
[3] = ATPlite assay run in parallel with the combination HCV-Luc assay; format: cell-based; conditions: (S)-CCZ combined with anti-HCV drugs
Procedure: Combination of ribavirin and peginterferon α (IFN-α) has been the standard of care to treat chronic HCV infection for many years. Direct-acting antivirals, such as telaprevir and daclatasvir, were recently approved for therapy of hepatitis C. The combination of (S)-CCZ with these different classes of anti-HCV drugs is described in this example. HCV-Luc assay in parallel with ATPlite assay was performed in the presence of various concentrations of (S)-CCZ in combination with various concentrations of each drug. Using the MacSynergy II program based on Bliss independence model, three-dimensional surface plots were generated and log volume of synergism was calculated for each combination. The results were also analyzed with the CalcuSyn program, in which the combination indices were calculated.

HCV genotype 2a = format: in vivo, mice
GT 2a replicon RNA = assay: Transient replicon assay, GT 2a; format: cell-based, HCV
Dengue RVP = assay: Dengue Reporter Virus Particles (RVPs) reproducibility assay; conditions: increasing concentrations; Huh 7.5.1 cells; luciferase 48 h
Procedure: Huh 7.5.1 cells seeded in 96-well plates (10^4 cells/well) were cultured overnight. […] The results are means of three replicates ±SEM.

VSVpp = format: cell-based
[4] = tested on: HCVcc, genotype 2a, JFH-1 strain; assay: TCID50 determination: re-infection of naive Huh 7.5.1 cells with medium from the HCVcc assay; format: cell-based, HCV; conditions: medium with extracellular virus used to re-infect naive Huh 7.5.1 cells
Procedure: FIG. 4B illustrates the TCID50 of naïve Huh 7.5.1 cells that were infected using medium collected in the HCVcc assay run using 0.32, 1.0, and 3.2 μM concentrations of NCGC00345021 and 0.032, 0.10 and 0.32 μM concentrations of Cyclosporin A.
as §1

CN1CCN(C(c2ccccc2)c2ccc(Cl)cc2)CC1 (racemic) [racemic CCZ, 1-((4-Chlorophenyl)(phenyl)methyl)-4-methylpiperazine, reference compound]
inhibitory effect in replicon GT 2a cell line (HCV replicon GT 2a): did not show much inhibitory effect
extracellular viral RNA level [1]: reduced
intracellular viral RNA level [1]: reduced
inhibitory activity in HCVpp GT 1a (HCVpp GT 1a): None of racemic, (R) and (S)-CCZ showed any inhibitory activities
inhibitory effect in replicon GT 1b cell line (HCV replicon GT 1b): did not show much inhibitory effect
EC50 (HCV-Luc): 0.044 ± 0.011 µM
CC50 [2]: 49.8 ± 17.2 µM
inhibition in transient replicon GT 1a (replicon GT 1a): no inhibition was observed
inhibitory activity in the HCVsc infection level (HCVsc, genotype 2a): significant inhibitory activities
inhibitory activity in HCVpp GT 1b (HCVpp GT 1b): None of racemic, (R) and (S)-CCZ showed any inhibitory activities

CN1CCN([C@H](c2ccccc2)c2ccc(Cl)cc2)CC1 [(R)-CCZ, (R)-1-((4-Chlorophenyl)(phenyl)methyl)-4-methylpiperazine]
inhibitory effect in replicon GT 2a cell line (HCV replicon GT 2a): did not show much inhibitory effect
extracellular viral RNA level [1]: reduced
intracellular viral RNA level [1]: reduced
inhibitory activity in HCVpp GT 1a (HCVpp GT 1a): None of racemic, (R) and (S)-CCZ showed any inhibitory activities
inhibitory effect in replicon GT 1b cell line (HCV replicon GT 1b): did not show much inhibitory effect
EC50 (HCV-Luc): 0.02 ± 0.005 µM
CC50 (Huh7.5.1 cells): 37.5 ± 4.2 µM
inhibition in transient replicon GT 1a (replicon GT 1a): no inhibition was observed
inhibitory activity in the HCVsc infection level (HCVsc, genotype 2a): significant inhibitory activities
inhibitory activity in HCVpp GT 1b (HCVpp GT 1b): None of racemic, (R) and (S)-CCZ showed any inhibitory activities

CN1CCN([C@@H](c2ccccc2)c2ccc(Cl)cc2)CC1 [(S)-CCZ, (S)-1-((4-Chlorophenyl)(phenyl)methyl)-4-methylpiperazine]
inhibitory effect in replicon GT 2a cell line (HCV replicon GT 2a): did not show much inhibitory effect
extracellular viral RNA level [1]: reduced
intracellular viral RNA level [1]: reduced
decrease of genotype 1b virus titer (HCV genotype 1b; 2 mg/kg daily): approximately 1 log
reduction of HCV titer from pretreatment baseline, genotype 1b (HCV genotype 1b; 50 mg/kg and 10 mg/kg daily, 4 weeks of treatment): 2 log
HCV titers during the treatment period (drug resistance), genotype 1b (HCV genotype 1b; during treatment): continued to decline during the treatment period without rebound
inhibitory activity in HCVpp GT 1a (HCVpp GT 1a): None of racemic, (R) and (S)-CCZ showed any inhibitory activities
inhibitory effect in replicon GT 1b cell line (HCV replicon GT 1b): did not show much inhibitory effect
EC50 (HCV-Luc): 0.024 ± 0.009 µM
cytotoxicity of the combinations [3]: without significant cytotoxicity
CC50 (Huh7.5.1 cells): 33.4 ± 2.4 µM
reduction of HCV titer from pretreatment baseline, genotype 2a (HCV genotype 2a; 50 mg/kg and 10 mg/kg daily, 6-week treatment): 1.5 log
HCV titers during the treatment period (drug resistance), genotype 2a (HCV genotype 2a; during treatment): continued to decline during the treatment period without rebound
inhibition in transient replicon GT 1a (replicon GT 1a): no inhibition was observed
inhibitory activity in the HCVsc infection level (HCVsc, genotype 2a): significant inhibitory activities
inhibitory activity in HCVpp GT 1b (HCVpp GT 1b): None of racemic, (R) and (S)-CCZ showed any inhibitory activities

COc1ccc(CN2CCC(N(CCc3ccccc3)Cc3ccccc3)CC2)c(OC)c1 [NCGC00345021, N-Benzyl-1-(2,4-dimethoxybenzyl)-N-phenethylpiperidin-4-amine]
inhibitory effect in replicon GT 2a cell line (HCV replicon GT 2a): did not show any inhibitory effect
% RLU at 10 μM, HCV subgenomic replicon GT 2a cell line (HCV replicon GT 2a; mean of five replicates ±SEM): 54.4 ± 2.96 % RLU
reduction in extracellular RNA level ([1]; at the highest concentration): 3 log fold
reduction in intracellular RNA copies ([1]; at the highest concentration): about 1 log fold
inhibition of viral replication, transient GT 2a replicon (GT 2a replicon RNA; 10 μM, Huh 7.5.1 cells): modest inhibition
% RLU at 10 μM, HCV subgenomic replicon Transient GT 2a (GT 2a replicon RNA; mean of five replicates ±SEM): 139 ± 16.4 % RLU
inhibitory activity in HCVpp GT 1a (HCVpp GT 1a): low inhibitory activity
% RLU at 10 μM, HCVpp GT 1a (HCVpp GT 1a; mean of five replicates ±SEM): 66.3 ± 9.49 % RLU
Dengue RVP reproducibility (Dengue RVP): dose-dependent inhibition
inhibition at 0.01 µM (HCV-Luc; at 10 nM): > 90%
% RLU at 10 μM, VSVpp (VSVpp): 103 ± 6.73 % RLU
inhibition on VSVpp (VSVpp; 10 μM): no inhibition
inhibitory activity in the HCVsc infection level (HCVsc, genotype 2a): no significant inhibitory activities
% RLU at 10 μM, HCVsc (HCVsc, genotype 2a; mean of five replicates ±SEM): 104 ± 9.95 % RLU
TCID50 values [4]: dose-dependent reduction
